Patent US20240391882A1 (Mirati Therapeutics, Inc., priority 2023, published 2024)

What was measured:
Assay type in all cases: cell-based
[1] = tested on: T47D (PI3Kα H1047R mutant) cells; experiment: Cell viability (CellTiter-Glo 2.0) in T47D cells; details: Homo sapiens, T47D, 72 h, approximately 72 hours
Method in brief: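 SKBR3 or T47D cells, 1000 per well, were seeded overnight and then exposed ~72 h at 37° C to 10 concentrations of compound, 1:4 dilutions from 10 μm. Viability read by CellTiter-Glo luminescence as percent of vehicle; IC50 from four-parameter variable-slope fit.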

[2] = tested on: pAKT in T47D (PI3Kα H1047R mutant) cells; experiment: Inhibition of pAKT (alphaLISA Surefire Ultra AKT 1/2/3 pS473) in T47D cells; details: Homo sapiens; T47D (PI3Kα H1047R mutant) cells, 24 hr compound incubation, alphaLISA pS473; read-out: T47D (H1047R) pAKT 24 hr (IC50)
Method in brief: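 Cells in HBSS were dosed from 10.4 μm (1:4 serial dilution, 10 concentrations) and incubated about 24 hours at 37° C, then lysed. pAKT S473 measured by alphaLISA after overnight bead incubation. Signal normalised to alpelisib (3.125 μm) and DMSO controls; IC50 from four-parameter fit.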

[3] = tested on: SKBR3 (PI3Kα wild type) cells; experiment: Cell viability (CellTiter-Glo 2.0) in SKBR3 cells; details: Homo sapiens, SK-BR-3; SKBR3 (PI3Kα wild type) cells, approximately 72 hours, CellTiter-Glo 2.0; read-out: SKBR3 (WT) Viability IC50
Description: This Example illustrates that representative compounds of the invention decrease the viability of cells.
The ability of a compound of Formula (I) to decrease the viability of cells was measured using CellTiter-Glo 2.0 (CTG) Luminescent Cell Viability Assay (#G9241) obtained from Promega (Madison, WI).
To prepare assay plates for viability assays, cells were trypsinized, resuspended in fresh media, and viable cells were counted utilizing trypan blue exclusion. T47D, SKBR3, or MKN1 cells were seeded at 1000 cells in 30 μl per well in a solid white flat bottom 384 cell culture plate (Perkin Elmer #6007680) and incubated at 37° C. overnight.
Assay day 1, cells were dosed using an Echo Liquid Handler (Beckman Coulter) with compounds at a 10 μm starting concentration and serially diluted (1:4) for a total of 10 concentrations. Cells were incubated for approximately 72 hours with the compounds (solubilized in DMSO) at 37° C. After 72 hours of treatment, cell plates were equilibrated to room temperature before adding 15 μl of CTG to each well, plates were then covered in aluminum foil to protect from light, incubated at room temperature for 30 minutes on a microtiter plate shaker, and luminescence readings were collected using a CLARIOstar microplate reader (BMG Labtech, Germany). Percent of vehicle control values were plotted as log(inhibitor) vs. response—Variable slope (four parameters) for curve fitting and IC50 values were determined using XLfit.

Cc1cc([C@@H](C)Nc2ccc(Cl)nc2C(=O)O)c2nc(N3CC4(CC[C@@H]4F)C3)c(C#N)nc2c1 (single isomer, unassigned) [Example 257A]
IC50 [1]: 139 nM
IC50 [2]: 4.8 nM
IC50 [3]: 3740 nM

Cc1cc([C@@H](C)Nc2ccc(Cl)nc2C(=O)O)c2nc(N3CCO[C@H]4C[C@H]43)c(C#N)nc2c1 (single isomer, unassigned) [Example 239B]
IC50 [1]: 22 nM
IC50 [2]: 0.4 nM
IC50 [3]: 7260 nM

Cc1cc([C@@H](C)Nc2ccc(Cl)nc2C(=O)O)c2nc(N3CCCC3)c(C#N)nc2c1 [Example 69, (R)-6-chloro-3-((1-(2-cyano-7-methyl-3-(pyrrolidin-1-yl)quinoxalin-5-yl)ethyl)amino)picolinic acid]
IC50 [1]: 50.2 nM
IC50 [2]: 2.1 nM
IC50 [3]: 9650 nM

Cc1cc([C@@H](C)Nc2ccccc2C(=O)O)c2nc(C3CC3)c(C#N)nc2c1 [Example 67, (R)-2-((1-(2-cyano-3-cyclopropyl-7-methylquinoxalin-5-yl)ethyl)amino)benzoic acid]
IC50 [1]: 687 nM
IC50 [2]: 72 nM
IC50 [3]: 2770 nM

Cc1cc([C@@H](C)Nc2ccccc2C(=O)O)c2nc(N3CCCC3)c(C#N)nc2c1 [Example 68, (R)-2-((1-(2-cyano-7-methyl-3-(pyrrolidin-1-yl)quinoxalin-5-yl)ethyl)amino)benzoic acid]
IC50 [1]: 391 nM
IC50 [2]: 24.4 nM
IC50 [3]: > 10000 nM

C[C@@H](Nc1ccc(Cl)nc1C(=O)O)c1cc(Cl)cc2nc(C#N)c(N3CCC(F)(F)CC3)nc12 [Example 34, (R)-6-chloro-3-((1-(7-chloro-2-cyano-3-(4,4-difluoropiperidin-1-yl)quinoxalin-5-yl)ethyl)amino)picolinic acid]
IC50 [1]: 48.2 nM
IC50 [2]: 6.2 nM
IC50 [3]: > 10000 nM

Cc1cc([C@@H](C)Nc2ccc(Cl)nc2C(=O)O)c2nc(N3CCc4c(ccn(C)c4=O)C3)c(C#N)nc2c1 [Example 221, (R)-6-chloro-3-((1-(2-cyano-7-methyl-3-(6-methyl-5-oxo-3,4,5,6-tetrahydro-2,6-naphthyridin-2(1H)-yl)quinoxalin-5-yl)ethyl)amino)picolinic acid]
IC50 [1]: 147 nM
IC50 [2]: 0.88 nM
IC50 [3]: > 10000 nM

Cc1cc([C@@H](C)Nc2ccc(Cl)nc2C(=O)O)c2nc(N3C[C@@H]4COC[C@H]4C3)c(C#N)nc2c1 (single isomer, unassigned) [Example 229B]
IC50 [1]: 18.6 nM
IC50 [2]: 1.2 nM
IC50 [3]: 4920 nM

Cc1cc([C@@H](C)Nc2ccc(Cl)nc2C(=O)O)c2nc(N3CCC4(COC4)C3)c(C#N)nc2c1 [Example 240, (R)-6-chloro-3-((1-(2-cyano-7-methyl-3-(2-oxa-6-azaspiro[3.4]octan-6-yl)quinoxalin-5-yl)ethyl)amino)picolinic acid]
IC50 [1]: 16 nM
IC50 [2]: 1.6 nM
IC50 [3]: 7990 nM

Cc1cc([C@@H](C)Nc2ccc(Cl)nc2C(=O)O)c2nc(N3C[C@@H](C)OC[C@@H]3C)c(C#N)nc2c1 [Example 238B, 6-chloro-3-(((R)-1-(2-cyano-3-((2R,5S)-2,5-dimethylmorpholino)-7-methylquinoxalin-5-yl)ethyl)amino)picolinic acid]
IC50 [1]: 117 nM
IC50 [2]: 3.5 nM
IC50 [3]: > 10000 nM

Cc1cc([C@@H](C)Nc2ccc(Cl)nc2C(=O)O)c2nc(N3CC[C@]4(CCCO4)C3)c(C#N)nc2c1 (single isomer, unassigned) [Example 253B]
IC50 [1]: 113 nM
IC50 [2]: 5.8 nM
IC50 [3]: 5140 nM

COC[C@@H]1CN(c2nc3c([C@@H](C)Nc4ccc(Cl)nc4C(=O)O)cc(C)cc3nc2C#N)CCO1 [Example 236A, 6-chloro-3-(((R)-1-(2-cyano-3-((S)-2-(methoxymethyl)morpholino)-7-methylquinoxalin-5-yl)ethyl)amino)picolinic acid]
IC50 [1]: 52.8 nM
IC50 [2]: 0.89 nM
IC50 [3]: > 10000 nM

CO[C@@H](C)C1CCN(c2nc3c([C@@H](C)Nc4ccc(Cl)nc4C(=O)O)cc(C)cc3nc2C#N)CC1 (single isomer, unassigned) [Example 195B]
IC50 [1]: 100 nM
IC50 [2]: 0.37 nM
IC50 [3]: > 10000 nM

Cc1cc([C@@H](C)Nc2ccccc2C(=O)O)c2nc(N3CCC(F)(F)CC3)c(C#N)nc2c1 [Example 3, (R)-2-((1-(2-cyano-3-(4,4-difluoropiperidin-1-yl)-7-methylquinoxalin-5-yl)ethyl)amino)benzoate]
IC50 [1]: 170 nM
IC50 [2]: 9.5 nM
IC50 [3]: > 10000 nM

Cc1cc([C@@H](C)Nc2ccc(Cl)nc2C(=O)O)c2nc(N3Cc4ccc(F)cc4C3)c(C#N)nc2c1 [Example 24, (R)-6-chloro-3-((1-(2-cyano-3-(5-fluoroisoindolin-2-yl)-7-methylquinoxalin-5-yl)ethyl)amino)picolinic acid]
IC50 [1]: 44.2 nM
IC50 [2]: 1.3 nM
IC50 [3]: > 10000 nM

Cc1cc([C@@H](C)Nc2ccc(Cl)nc2C(=O)O)c2nc(N3CCCC(F)(F)CC3)c(C#N)nc2c1 [Example 847, (R)-6-chloro-3-((1-(2-cyano-3-(4,4-difluoroazepan-1-yl)-7-methylquinoxalin-5-yl)ethyl)amino)picolinic acid]
IC50 [1]: 59 nM
IC50 [2]: 1.8 nM
IC50 [3]: 4940 nM

CO[C@H]1CCCN(c2nc3c([C@@H](C)Nc4ccc(Cl)nc4C(=O)O)cc(C)cc3nc2C#N)C1 [Example 196A, 6-chloro-3-(((R)-1-(2-cyano-3-((S)-3-methoxypiperidin-1-yl)-7-methylquinoxalin-5-yl)ethyl)amino)picolinic acid]
IC50 [1]: 62.1 nM
IC50 [2]: 1.2 nM
IC50 [3]: > 10000 nM

Cc1cc([C@@H](C)Nc2ccc(Cl)nc2C(=O)O)c2nc(N3CC4(CCCO4)C3)c(C#N)nc2c1 [Example 252, (R)-6-chloro-3-((1-(2-cyano-7-methyl-3-(5-oxa-2-azaspiro[3.4]octan-2-yl)quinoxalin-5-yl)ethyl)amino)picolinic acidS]
IC50 [1]: 119 nM
IC50 [2]: 2.7 nM
IC50 [3]: 5260 nM

COC[C@H]1CN(c2nc3c([C@@H](C)Nc4ccc(Cl)nc4C(=O)O)cc(C)cc3nc2C#N)CCO1 [Example 236B, 6-chloro-3-(((R)-1-(2-cyano-3-((R)-2-(methoxymethyl)morpholino)-7-methylquinoxalin-5-yl)ethyl)amino)picolinic acid]
IC50 [1]: 217 nM
IC50 [2]: 3.6 nM
IC50 [3]: > 10000 nM

Cc1cc([C@@H](C)Nc2cccnc2C(=O)O)c2nc(N3CCC(F)(F)C3)c(C#N)nc2c1 [Example 204, (R)-3-((1-(2-cyano-3-(3,3-difluoropyrrolidin-1-yl)-7-methylquinoxalin-5-yl)ethyl)amino)picolinic acid]
IC50 [1]: 393 nM
IC50 [2]: 58.1 nM
IC50 [3]: 1850 nM

Cc1cc([C@@H](C)Nc2ccc(Cl)nc2C(=O)O)c2nc(N3CCC(F)(F)CC3)c(C3CC3)nc2c1 [Example 48, (R)-6-chloro-3-((1-(2-cyclopropyl-3-(4,4-difluoropiperidin-1-yl)-7-methylquinoxalin-5-yl)ethyl)amino)picolinic acid]
IC50 [1]: 95.3 nM
IC50 [3]: > 10000 nM

Cc1cc([C@@H](C)Nc2ccc(Cl)nc2C(=O)O)c2nc(N3CCc4cc(F)ccc4C3)c(C#N)nc2c1 [Example 87, (R)-6-chloro-3-((1-(2-cyano-3-(6-fluoro-3,4-dihydroisoquinolin-2(1H)-yl)-7-methylquinoxalin-5-yl)ethyl)amino)picolinic acid]
IC50 [1]: 88.7 nM
IC50 [3]: 9250 nM

CO[C@H]1CCN(c2nc3c([C@@H](C)Nc4ccccc4C(=O)O)cc(C)cc3nc2C#N)C1 (single isomer, unassigned) [Example 72A]
IC50 [1]: 298 nM
IC50 [3]: > 10000 nM

CO[C@@H]1CCN(c2nc3c([C@@H](C)Nc4ccccc4C(=O)O)cc(C)cc3nc2C#N)C1 (single isomer, unassigned) [Example 72B]
IC50 [1]: 96.3 nM
IC50 [3]: > 10000 nM

Cc1cc([C@@H](C)Nc2ccc(Cl)nc2C#N)c2nc(N3CCOCC3)c(C#N)nc2c1 [Example 855, (R)-5-(1-((6-chloro-2-cyanopyridin-3-yl)amino)ethyl)-7-methyl-3-morpholinoquinoxaline-2-carbonitrile]
IC50 [1]: 1080 nM
IC50 [3]: 6900 nM

Cc1cc([C@@H](C)Nc2ccc(Cl)nc2C(=O)O)c2nc(N3CCc4ccccc4C3)c(C#N)nc2c1 [Example 83, (R)-6-chloro-3-((1-(2-cyano-3-(3,4-dihydroisoquinolin-2(1H)-yl)-7-methylquinoxalin-5-yl)ethyl)amino)picolinic acid]
IC50 [1]: 60.7 nM
IC50 [3]: > 10000 nM
